# Test results published in patent US20100216875A1, “METHODS OF TREATING ALZHEIMER'S DISEASE” (priority 2006, published 2010).
# Where two headings read alike, the source gives them in different places. Peptide text beside a SMILES is read from it. * marks the point of attachment. Cbz = O=C(OCc1ccccc1)*
# Key:
# [1] = tested on: endogenous β-secretase activity in regulated secretory vesicles; assay: endogenous β-secretase activity in isolated regulated secretory vesicles, monitored with Z-Val-Lys-Met-MCA; type: biochemical, bovine
# Method: A high throughput screening (HTS) assay was developed to measure protease activity that cleaves the wild-type β-secretase cleavage site. The substrate Z-Val-Lys-Met-MCA mimics the wild-type β-secretase cleavage site upon cleavage between Met-MCA, which generates fluorescent MCA. The free MCA fluorescence provides sensitive and quantitative measurement of protease activity. This assay provides a rapid (30 minutes) and sensitive assay of activity for cleaving the wild-type β-secretase cleavage site of APP, expressed in majority of the AD population Specifically, the Z-Val-Lys-Met-MCA cleaving assay can be used to detect endogenous β-secretase activity in regulated secretory vesicles.
# Isolation of regulated secretory vesicles, also known as chromaffin vesicles, from adrenal medullary tissue (bovine) was conducted by sucrose density gradient purification, as described previously (54-56, 58). Briefly, fresh bovine adrenal medulla (from 40 glands) was gently homogenized by a polytron (Brinkmann) in 200-250 ml ice-cold 0.32 M sucrose. The homogenate was centrifuged at 1500 rpm in a GSA rotor (Sorval centrifuge) for 20 minutes at 4° C. The supernatant was collected and centrifuged at 8000 rpm in a GSA rotor for 20 minutes at 4° C. to obtain a pellet of chromaffin vesicles. The pellet was washed 3 times in 0.32 M sucrose. […]
# [2] = tested on: Aβ40 production from endogenous APP in regulated secretory vesicles isolated from chromaffin cells; assay: Aβ production from endogenous APP in isolated regulated secretory vesicles; type: biochemical, bovine; settings: inhibitor 10 μM
# Method: Regulated secretory vesicles isolated from chromaffin cells naturally produce Aβ from endogenous APP when incubated at 37° C. in vitro for several hours. These vesicles can be used as an in vitro screen for compounds that inhibit Aβ production. […] The effects of cathepsin B inhibitors, CA074 (10 μM, ♦) and CA074Me (10 μM, □), on the production of Aβ40 from endogenous APP in regulated secretory vesicles isolated from chromaffin cells was evaluated in time course studies. […] Each inhibitor was tested in triplicate; values represent x±sem (*statistically significant with p<0.05).
# Cathepsin B compounds that were effective inhibitors of endogenous II-secretase activity were tested for inhibition of Aβ peptide production in regulated secretory vesicles. The effect of reversible cathepsin B compounds on production of Aβ40 and Aβ42 in isolated chromaffin vesicles was tested by incubating candidate inhibitors (at 10 μM) with lysed chromaffin vesicles under identical conditions as for the β-secretase assay for 8 hours. […] After incubation, Aβ40 and Aβ42 was measured by ELISA assays, as described for measurement of Aβ peptides in brain extracts. Each candidate inhibitor was assayed in triplicate.
# cathepsin B [3] = target: T1, cathepsin B (Homo sapiens, UniProt P07858); assay: recombinant cathepsin B β-secretase assay (Z-VKM-MCA); type: biochemical; parameters: purchased; settings: recombinant human cathepsin B (3.5 ng), Z-V-K-M-MCA substrate (100 μM); read-out: IC50 inhibitory concentration
# Method: Peptide structures that inhibit cathepsin B β-secretase activity were used to develop small molecule AD drugs. A library of dipeptide aldehydes were screened for an inhibitory effect on the cathepsin B β-secretase activity using recombinant human cathepsin B (3.5 ng) cleavage of the Z-V-K-M-MCA substrate (100 μM).
# The recombinant cathepsin B β-secretase assay occurs in a solution (100 μl total volume) consisting of H2O (20 μl), Na-Acetate (50 mM, pH 5.0), NaCl (100 mM), Z-VKM-MCA (100 μM), GSH (10 mM), EDTA (1 mM), and recombinant human cathepsin B (3.5 ng) and 2DMSO (2%). A dipeptide aldehyde was added to such solutions in varying amounts to determine the IC50. The reagents were generally commercially available or, in the case of the dipeptide aldehydes, custom synthesized. The assay was incubated at 37° C. for 45 minutes and the fluorescence was read using a spectrophotometer (365/450 nm excitation/emission). Assays were run in duplicate. Compounds that inhibited cathepsin B by 80-100% (at 10 μM) underwent dose-response testing at […] to 10 μM to determine potency, measured as IC50 values (determined by non-linear regression a analysis using Graphpad Prism). Compounds with IC50 values in the nanomolar range, up to 100 nM, were selected for further study.
# brain Aβ = settings: wild-type mice, icv 200 mg/kg/day; cited from earlier work
# cathepsin B [4] = target: T1, cathepsin B; settings: reference (4); read-out: IC50 for cathepsin B inhibition; cited from earlier work
# aspartyl protease, BACE1 = aspartyl protease, BACE1 (Homo sapiens, UniProt P56817); assay: effect on BACE1; type: biochemical
# [5] = tested on: brain and synaptosomal Aβ; assay: guinea pig brain and synaptosome Aβ by ELISA after icv infusion; type: in vivo; settings: icv 0.15 mg/kg/day, 30 days
# Excerpt: Guinea pig (gp) is a natural, non-transgenic model of human APP processing gpAPP is 98% homologous to human APP, contains the human wild-type β-secretase site, and gpAβ is identical to human Aβ. Brain synaptosome preparations are enriched with neuronal synapses which are the sites at which regulated secretion occurs and are an in vivo measure of regulated secretory secretion CTFβ is an APP fragment that results from p-secretase cleavage of APP and reflects in vivo β-secretase activity. […] E64d was icy administered into gp brains (0.15 mg/kg/day) for 7 or 30 days. […] In FIG. 5b, total synaptosomal Aβ is shown.
# CA074Me (0.15 mg/kg/day) was icy infused into gp brains with mini pumps. […] An equal reduction of Aβ40 and Aβ42 is consistent with the inhibitor affecting p-secretase activity
# At the end of the treatment, the brains were isolated and extracted with guanidine hydrochloride and Aβ40 and Aβ42 levels were determined using ELISA.
# Cathepsin B inhibitors were administered directly into the brain by icy infusion with minipumps in time course studies at different doses. Guinea pigs were infused with compounds using Alzet pumps (2.5 μl/hr, with compounds at 1 mg/ml in saline) for 7 and 30 days, and other times. This initial dose of compound was selected because E64d and CA074Me are effective at this dose. Each treatment group consisted of eight to ten guinea pigs, including the vehicle control group.
# At the end of each experiment, animals were sacrificed and half the brain was taken for ELISA measurement of Aβ40 and Aβ42 levels. The other half was isolated for synaptosome preparations for ELISA measurement of Aβ40 and Aβ42 content in nerve terminals. Synaptosomes were prepared by homogenization in isotonic sucrose (320 mM), pH 7.4, 1 mM EDTA, 0.25 mM dithiothreitol, and 30 U/MI RNAse inhibitor. The homogenate was centrifuged at 1000×g for 10 minutes. The supernatant was loaded on a Sucrose-Percoll discontinuous gradient and centrifuged at 32,000×g for 5 minutes (80) Enriched synaptosomes were washed in PBS, and centrifuged at 12,000×g for 4 minutes. The supernatant was removed, and the synaptosome containing pellet was resuspended in 50% OptiPrep (Accurate Chemica. Westbury, N.Y.), loaded on an OptiPrep discontinuous flotation gradient (9, 12.5, 25, and 35%) and centrifuged at 10,000×g for 20 minutes. The synaptosomes were obtained at the […]
# For quantitative analysis of Aβ peptides, an enzyme-linked immunosorbent assay (ELISA) was used to measure the levels of total Aβ, Aβtotal, Aβ40 and Aβ42 in the brains and synaptosomes of guinea pigs (Biosource International, Camarillo, Calif.) Aβtotal, Aβ40, Aβ42 was extracted from guinea pig brains or from synaptosomes by guanidine hydrochloride and quantified as described by the manufacturer. This assay extracted the total Aβ peptide from the brain (both soluble and aggregated). Tissue samples were homogenized in 5M guanidine buffer (5M guanidine HCl in 50 mM Tris-Cl, pH 8.3; Sigma-Aldrich, St. Louis, Mo.) at 1:10 w/v dilution. Homogenates were agitated at room temperature for 3-4 hours, then stored at −20° C. The day before running the ELISA, the tissue samples were diluted further 1:10 to provide a final guanidine concentration of 0.5M. These diluted homogenates were spun down at 14,000 rpm for 20 minutes at 4° C. and supernatants used for Aβ determination by ELISA (84-86). Brain and synaptosome extracts were assayed as diluted in 0.5M guanidine. In addition, Aβ40 and Aβ42 were assayed using ELISA using 6E10 as the capture antibody and Rb209 and Rb321 as reporter antibodies, respectively, for Aβ40 and Aβ42 (96).
# [6] = target: cathepsin B purified from secretory vesicles (Bos taurus, UniProt P07688); assay: Z-Val-Lys-Met-MCA cleaving activity of purified cathepsin B; settings: inhibitor 10 μM
# Sequence of aspartyl protease, BACE1 (P56817 46-501): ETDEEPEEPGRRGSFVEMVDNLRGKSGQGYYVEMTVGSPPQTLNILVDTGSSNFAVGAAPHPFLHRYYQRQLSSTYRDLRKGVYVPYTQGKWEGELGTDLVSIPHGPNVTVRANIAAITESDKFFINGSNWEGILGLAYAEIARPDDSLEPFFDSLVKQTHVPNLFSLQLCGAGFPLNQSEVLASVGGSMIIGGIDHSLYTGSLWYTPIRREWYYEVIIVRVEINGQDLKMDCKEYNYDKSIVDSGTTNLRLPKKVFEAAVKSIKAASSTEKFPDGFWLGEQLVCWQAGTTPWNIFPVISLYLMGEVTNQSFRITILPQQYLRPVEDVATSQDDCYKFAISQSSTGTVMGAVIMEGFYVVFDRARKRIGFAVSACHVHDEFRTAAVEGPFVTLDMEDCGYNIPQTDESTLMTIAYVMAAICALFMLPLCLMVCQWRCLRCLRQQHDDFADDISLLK
smiles,measurement,setting,value
CCCNC(=O)[C@H]1O[C@@H]1C(=O)N[C@H](C(=O)N1CCC[C@H]1C(=O)O)[C@@H](C)CC [CA074],inhibition of endogenous β-secretase activity in regulated secretory vesicles,[1]; inhibitor 1 μM,completed inhibited
same,effect on Aβ production in isolated regulated secretory vesicles,[2],block Aβ production
O=CC(CO)NC(=O)C(Cc1ccc(O)cc1)NC(=O)OCc1ccccc1 (stereo not drawn) [Z-YS-ald] (Cbz-Tyr-Ser-aldehyde; configuration not given here),IC50,cathepsin B [3],0.037 µM
CC(C)C[C@H](NC(=O)[C@@H](NC(=O)[C@@H](N)CNC(=O)c1nn[nH]n1)C(C)C)C(=O)N[C@@H](Cc1ccccc1)[C@@H](O)C(=O)Nc1cc(C(=O)O)cc(C(=O)O)c1 [KMI-429],maximum reduction in brain Aβ,brain Aβ,30-40%
CC(C)C(C=O)NC(=O)C(Cc1ccc(O)cc1)NC(=O)OCc1ccccc1 (stereo not drawn) [Z-YV-ald] (Cbz-Tyr-Val-aldehyde; configuration not given here),IC50,cathepsin B [3],0.065 µM
O=CC(CO)NC(=O)C(CCC(=O)NC(c1ccccc1)(c1ccccc1)c1ccccc1)NC(=O)OCc1ccccc1 (stereo not shown) [Z-Q(Trt)S-ald],IC50,cathepsin B [3],0.058 µM
"CC(=O)N[C@@H](CC(C)C)C(=O)N[C@H](C(=O)N[C@H](C=O)CCCCN)C(C)C [Ac-LVK-CHO, acetyl-L-leucyl-L-valyl-L-lysinal] (Ac-Leu-Val-Lys-aldehyde)",IC50,cathepsin B [4],0.004 µM
same,effect on BACE1,"aspartyl protease, BACE1",do not affect
same,reduction of Aβ40 in brain extracts,[5],about 70%
same,reduction of Aβ42 in brain extracts,[5],~60%
CC(=O)NCCCCC(C=O)NC(=O)C(CSC(=O)OCc1ccccc1)NC(=O)OCc1ccccc1 (stereo not shown) [Z-C(Z)K(Ac)-ald] (Cbz-Cys(Cbz)-Lys(Ac)-aldehyde; configuration not given here),IC50,cathepsin B [3],0.091 µM
CC(=O)NCCCCC(C=O)NC(=O)C(NC(=O)OCc1ccccc1)C(C)C (stereo not shown) [Z-VK(Ac)-ald],IC50,cathepsin B [3],0.031 µM
O=CC(CO)NC(=O)C(CSC(=O)OCc1ccccc1)NC(=O)OCc1ccccc1 (stereo not shown) [Z-C(Z)S-ald] (Cbz-Cys(Cbz)-Ser-aldehyde; configuration not given here),IC50,cathepsin B [3],0.067 µM
CC(C)CCNC(=O)[C@H](CC(C)C)NC(=O)[C@H]1O[C@@H]1C(=O)O [E64c],inhibition of endogenous β-secretase activity in regulated secretory vesicles,[1]; inhibitor 10 μM,completed inhibited
same,inhibition of Z-Val-Lys-Met-MCA cleaving activity of cathepsin B,[6],completely inhibited
same,effect on Aβ production in isolated regulated secretory vesicles,[2],inhibited
